# Test results as given in patent publication US11466066B2, “Variants of human BMP7 protein” (ELI LILLY AND COMPANY, priority 2017, dated 2022).
# Key:
# 3T3-L1 fibroblasts = assay: Alkaline phosphatase stimulation in 3T3-L1 cells; type: cell-based; details: 1 μg/ml pro-BMP7, 1 μM ATRA, 48 hours
# Description: (§1) 3T3-L1 fibroblasts and MFc7 mouse renal myofibroblasts may be grown essentially as described in Example 2 above. After 48 hours the cells may be washed with PBS prior to the addition of either DMEM/2% dialyzed FBS or OPTI-MEM/2% dialyzed FBS medium containing control vehicle, 1 μg/ml human proBMP7 protein, 1 μM ATRA or a combination of both human BMP7 protein (1 μg/ml) and ATRA (1 μM) may be added for 48 hours. After treatment the cells may be rinsed with PBS and stored at −80° C. for approximately 20 minutes. The cells may be thawed at 37° C. for 30 minutes and 100 μl of PNPP may be added to every well. The plate may be incubated at 37° C. for 1 hour. The absorbance at 405 nm may be read on a plate reader.
# Ki67 = Ki67 expression in GBM cells; type: cell-based, human; details: ATRA 1 μg/ml, F9 100 ng/mL
# Description: (§2) Glioblastoma multiforme stem cells (GBMs) may be obtained from patients with primitive brain tumors undergoing complete or partial surgical resection. These cells may be maintained as neurospheres in defined media with 3.34 g/L of DMEM and 2.66 g/L F12 reconstituted in sterile distilled water and containing 1% glucose, 0.12% sodium bicarbonate, 5 mM hepes, 2 mM L-glutamine, 4 mg/L heparin, 10 ng/mL bFGF, 20 ng/mL EGF, 0.4% BSA, 100 μg/mL apotransferrin, 25 μg/mL insulin, 60 uM putrescine, 30 nM sodium selenite, and 20 nM progesterone. Cells may be cultured at 37° C. in 5% CO2. Cells may be plated by enzymatically dispersing spheres into single cells with a 2-5 minute incubation at 37° C. with TrypLE™ Express cell dissociation enzyme. The enzyme may be quenched with Dulbecco's Phosphate Buffered Saline (DPBS) containing Ca+ and Mg+. Then the cells may centrifuged to remove TrypLE and DPBS and resuspended as single cells in defined media and counted by a Coulter Z2 Cell and Particle counter.
# (§3) Single GBM cells may be plated in defined media at 2×10^6 cells/15 mL/T75 flask for high content imaging or 5×10^5 cells/2 mL/well in 6-well plates for light microscopy. Cells may be treated with 0.01% DMSO, 1 μg/mL ATRA, 100 ng/mL of a human BMP7 protein variant of the present invention (e.g., human BMP7 protein variant F9 (SEQ ID NO: 8)), or a combination of 1 μg/mL ATRA and 100 ng/mL human BMP7 protein variant of the present invention. For light microscopy imaging of the effect of control BMPs (BMP2 and BMP4), cells may be plated as above in 6-well dishes and treated with 0.01% DMSO, 1 μg/mL ATRA, 100 ng/mL BMP2, 50 ng/mL BMP4, or a combination of BMPs at the same concentrations plus 1 μg/mL ATRA. Example images may be captured at 3, 7, and 30 days post-treatment on a Leica DMIRM inverted microscope using a 20× objective, for example. For growth longer than 7 days, media and treatment may be changed approximately every 10 days beginning at day 10. […]
# [1] = system: MFc7 mouse renal myofibroblasts; assay: Alkaline phosphatase stimulation in MFc7 cells; type: cell-based; details: 1 μg/ml pro-BMP7, 1 μM ATRA, 48 hours
# Description: as §1
# SOX2 = SOX2 expression in GBM cells; type: cell-based, human; details: ATRA 1 μg/ml, F9 100 ng/mL
# Description: as §2, §3
# [2] = system: ADSC/ECFC co-culture stimulated with bFGF; assay: FGF-driven cord formation; type: cell-based; details: 100 nM; 10 ng/ml bFGF; 96 hours
# Source text: (§4) An in vitro endothelial cord formation assay, a surrogate of angiogenesis, may be used to investigate the role of human BMP7 proteins on various growth factor established cords including, but not limited to, VEGF, basic FGF, and EGF established cords. Endothelial cord forming cells (ECFCs; passage 4-10 suitable for cord formation) may be cultured in EGM-2 MV (Lona) media containing a final concentration of 10% FBS and passaged onto type 1 collagen (fibrillar) coated flasks prior to seeding into the cord formation assay in vitro. […]
# (§5) An ADSC/ECFC co-culture was unstimulated (basal) or stimulated with 10 ng/ml bFGF and treated simultaneously with PBS or 100 ng/ml human pro-BMP7 variant F9 or 100 nM sunitinib for 96 hours prior to immunohistochemistry for CD31 (green), α-smooth muscle actin (red), and Hoechst 33342 to stain all nuclei (blue). Resulting CD31-positive endothelial cords were visualized and quantitated using high content imaging. […]
# [3] = system: ADSC/ECFC co-culture stimulated with EGF; assay: EGF-driven cord formation; type: cell-based; details: 100 nM; 10 ng/ml EGF; 96 hours
# Source text: as §4
# as §5, with “EGF” for “bFGF”
# [4] = system: ADSC/ECFC co-culture stimulated with VEGF; assay: VEGF-driven cord formation; type: cell-based; details: 100 nM; 10 ng/ml VEGF; 96 hours
# Source text: as §4
# as §5, with “VEGF” for “bFGF”
Compound,fold change in alkaline phosphatase stimulation relative to control vehicle treated cells (3T3-L1 fibroblasts) [fold],"Ki67 percent responders normalized to vehicle control (Ki67; GBM clone CL-1, Day 3) [%]","Ki67 percent responders normalized to vehicle control (Ki67; GBM clone CL-61, Day 0) [%]","Ki67 percent responders normalized to vehicle control (Ki67; GBM clone Cl-1, Day 25) [%]",fold change in alkaline phosphatase stimulation relative to control vehicle treated cells [1] [fold],"SOX2 percent responders normalized to vehicle control (SOX2; GBM clone CL-1, Day 3) [%]","SOX2 percent responders normalized to vehicle control (SOX2; GBM clone CL-61, Day 0) [%]","SOX2 percent responders normalized to vehicle control (SOX2; GBM clone Cl-1, Day 25) [%]",Connected Tube Area - FGF (% PBS) [2] [%],Connected Tube Area - EGF (% PBS) [3] [%],Connected Tube Area - VEGF (% PBS) [4] [%]
"CC1=C(/C=C/C(C)=C/C=C/C(C)=C/C(=O)O)C(C)(C)CCC1 [ATRA, All-trans retinoic acid, reference compound]",2.9,99,83,101,8,97,89,97,,,
"CCN(CC)CCNC(=O)c1c(C)[nH]c(/C=C2\C(=O)Nc3ccc(F)cc32)c1C [sunitinib, reference compound]",,,,,,,,,43.01 ± 18.28,9.89 ± 8.059,26.14 ± 9.88
